Test results reported in US7482008B1, “Human T cell reactive feline protein (TRFP) isolated from house dust and uses therefor” (Merck Patent GmbH, priority 1989, dated 2009).

How the values were obtained:
human IgE = assay: ELISA of human IgE binding, plasma from patient #669; conditions: patient #669 plasma
Description: Corning assay plates (#25882-96) were coated with 10 μg/ml of each coating antigen (i.e., TRFP, chain 1 (recombinant chain 1 of TRFP), chain 2 (recombinant chain 2 of TRFP), peptide XYZ, peptide XZY, peptide YXZ, peptide YZX, peptide ZXY and peptide ZYX) listed in FIG. 34 at 50 μl/well and incubated overnight at 4° C. The coating antigens were removed and the wells were blocked with 0.5% gelatin in PBS, 200 μl/well for 2 hours at room temperature. Plasma from patient #669 was serially diluted with PBS-Tween 20 (PBS with 0.05% nonionic detergent Tween-20 Sigma, St. Louis Mo.) and 100 μl/well was added and incubated overnight at 4° C. (plasma dilutions are tested in duplicate). The second antibody (biotinylated goat anti-Human IgE, 1:1000, Kirkegaard & Perry Laboratories Inc. Gaithersburg, Md.), was added at 100 μl/well for one hour at room temperature. This solution was removed and streptavidin-HRPO, 1:10,000 (Southern Biotechnology Associates, Inc., Birmingham, Ala.) was then added at 100 μl/well for one hour at room temperature (all wells were washed three times with PBS-Tween between each incubation step). TMB Membrane Peroxidase Substrate system (Kirkegaard & Perry Laboratories) was freshly mixed, and added at 100 μl/well. The color was allowed to develop for 2-5 minutes. The reaction was stopped by the addition of 100 μl/well of 1M phosphoric acid. Plates were read on a Microplate EL 310 Autoreader (Biotek Instruments, Winooski, Vt.) with a 450 nm filter. The absorbance levels of duplicate wells were averaged.

B6CBAF1 mice = assay: Murine T cell response after immunization with peptide YZX, IL-2 production (CTLL-2); type: in vivo, mouse; conditions: mice immunized with 100 μg peptide YZX in CFA; label = antigen in culture
Description: 10 B6CBAF1 mice were immunized subcutaneously at the base of the tail and in the thigh region with 100 μg of peptide YZX in complete Freund's adjuvant. After 10 days, the inguinal, paraaortic, and popliteal nodes of the immunized mice were removed and pooled. The lymph node cells were suspended in cold RPMI 1640 with 1% fetal bovine serum (FBS) by passage through stainless steel mesh. The cells were washed 2 times with cold RPMI-1640 containing 1% FBS and maintained at 4° C.
The lymph node cells were plated at 4×10^6 cells/ml in RPMI 1640 with 10% FBS, 250 μg/ml penicillin G, 100 μg/ml streptomycin, and 5×10^−5 M 2-mercaptoethanol. […] After 24 hours, 50 μl of supernatant was removed from each culture and frozen overnight to eliminate live cell carryover. The supernatant was warmed to […] and washed. CTLL-2 indicator cells (ATCC # T1B 214) were added (5×10^3 cells/well). This indicator cell line requires IL-2 for continued growth. After 24 hours, H^3-thymidine (1 μCi/well) was added and the cells were further incubated for 4 hours. The plates were frozen and thawed, harvested on a Tomtec 96 well harvester (Tomtec, Orange, Conn.), and counted on a Betaplate beta counter (Pharmacia, Gaithersburg, Md.).

[1] = system: T cells from cat allergic patients; assay: T cell proliferation of TRFP-primed T cells from cat allergic patients (tritiated thymidine), Example 5 Part A; type: cell-based, human
Description: Peripheral blood mononuclear cells (PBMC) were purified from 60 ml of heparinized blood from cat allergic patients. PBMC were subsequently treated as described below, although in individual cases, the length of time of cultivation with IL-2 and/or IL-4 and the specific peptides used for stimulation varied.
10 ml of PBMC from patient 131 at 10^6 /ml were cultured at 37° C. for 7 days in the presence of 5 μg purified TRFP/ml RPMI-1640 supplemented with 5% pooled human AB serum. Viable cells were purified by Ficoll-Hypaque centrifugation and cultured for three weeks at 5 units recombinant human IL-2/ml and 5 units recombinant human IL-4/ml. The resting T cells were then restimulated (secondary) with 5 μg TRFP at 2×10^5/ml in the presence of irradiated (3500 Rads) autologous PBMC at a concentration of 5×10^5/ml for three days, purified by Ficoll-Hypaque centrifugation and grown in 5 units IL-2 and 5 units IL-4/ml for two weeks. For assay, 2×10^4 resting secondary T cells were restimulated (tertiary) in the presence of 5×10^4 irradiated (3500 Rads) autologous PBMC or 2×10^4 transformed B cells (20,000 Rads) with various concentrations of allergens or their fragments in a volume of 200 microliters in a 96-well round bottom assay plates for 3 days. Each well then received 1 μCurie tritiated (methyl) thymidine for 16 hours. The counts incorporated were collected onto glass fiber filters and processed for liquid scintillation counting.
Antigens used: T cell reactive feline protein (TRFP), Hollister-Stier cat epithelium skin test reagent (CST), IPC ragweed pollen extract (pollen), and synthetic peptides derived from TRFP protein sequence (See FIGS. 6 and 7). Positive T cell proliferation is for these experiments was considered to be greater than 2.5 times the media control (T cells and antigen presenting cells alone).
Alternatively, PBMC were treated as follows: The primary stimulated cells were cultured in IL-2/IL-4 for two weeks. The resting T cells derived from this culture were tested in a secondary assay with some, but not all, of the above allergens. […] This type of epitope analysis has allowed the definition of T cell epitopes present in TRFP.

Substance	IgE binding, ELISA (human IgE)	T cell response of pooled lymph node cells (IL-2 production) (B6CBAF1 mice)	other results
recombinant chain 1: recombinant TRFP chain 1 expressed in E. coli	somewhat lower binding		
TRFP: human T cell reactive feline protein affinity purified from house dust; two covalently linked chains	high level of IgE binding		
peptide Y: amino acid residues 29-55 from chain 1 of TRFP (SEQ. ID. NO: 18) (KALPVVLENARILKNCVDAKMTEEDKE)		significant response	
NARILKNCVDAKMTEEDKE [Fel 4, TRFP chain 1 amino acids 37-55]			PI ([1]; Table 2, chain #1 TRFP peptides, average SI of responding patients multiplied by percent of patients with positive response (SI >2.5)): 601; SI ([1]; Table 2, chain #1 TRFP peptides, average cpm with antigen divided by cpm of T cells and APC alone, responding patients): 7.7
peptide X: amino acid residues 7-30 from chain 1 of TRFP (SEQ. ID. NO: 17); Table 2 lists Fel 8-3 as 7-33 (KRDVDLFLTGTPDEYVEQVAQYKALPV)		significant response	T cell stimulatory activity ([1]; summary in words of Tables 2 and 3): powerful activity
